Assay results from publication PMC10507085, “Pharmacological inhibition of TBK1/IKKε blunts immunopathology in a murine model of SARS-CoV-2 infection” (Nature Communications, 2023).

Legend:
Experiment in all cases: biochemical
Design in all cases: KINOMEscan competition binding, DNA-tagged kinase against immobilised ligand, qPCR read-out
Conditions in all cases: read-out: Percent Control
WNK1 = WNK1 (Homo sapiens, UniProt Q9H4A3)
Protocol: (§1) The KINOMEscan^TM kinase assays[65] were performed by Eurofins DiscoverX Corporation. For each kinase, the assay relies on the ability of the tested compound to compete against an immobilised ligand for binding to the DNA-tagged kinase. RT-qPCR is then used to measure the quantity of kinase molecules bound to the immobilised ligand, which is decreased if the tested compound competed with the kinase-ligand interaction. An 11-point 3-fold serial dilution of IDX compound was prepared in 100% DMSO at 100× final test concentration and subsequently diluted to 1× in the assay. […]

ADRBK2 = target: T1, ADRBK2 (Homo sapiens, UniProt P35626)
T1 construct: gene GRK3
Protocol: as §1

PDPK1 = PDPK1 (Homo sapiens, UniProt O15530)
Protocol: as §1

CDK9 = CDK9 (Homo sapiens, UniProt P50750)
Protocol: as §1

PAK4 = PAK4 (Homo sapiens, UniProt O96013)
Protocol: as §1

TNK2 = TNK2 (Homo sapiens, UniProt Q07912)
Protocol: as §1

STK38L = STK38L (Homo sapiens, UniProt Q9Y2H1)
Protocol: as §1

TGFBR2 = TGFBR2 (Homo sapiens, UniProt P37173)
Protocol: as §1

MAP3K4 = MAP3K4 (Homo sapiens, UniProt Q9Y6R4)
Protocol: as §1

PHKG1 = PHKG1 (Homo sapiens, UniProt Q16816)
Protocol: as §1

AURKA = AURKA (Homo sapiens, UniProt O14965)
Protocol: as §1

MET = MET (Homo sapiens, UniProt P08581)
Protocol: as §1

WNK3 = WNK3 (Homo sapiens, UniProt Q9BYP7)
Protocol: as §1

CDK15 = CDK15 (Homo sapiens, UniProt Q96Q40)
Protocol: as §1

EPHA3 = EPHA3 (Homo sapiens, UniProt P29320)
Protocol: as §1

PHKG2 = PHKG2 (Homo sapiens, UniProt P15735)
Protocol: as §1

NEK4 = NEK4 (Homo sapiens, UniProt P51957)
Protocol: as §1

NEK9 = NEK9 (Homo sapiens, UniProt Q8TD19)
Protocol: as §1

KDR = KDR (Homo sapiens, UniProt P35968)
Protocol: as §1

[1] = target: T2, RSK4(Kin.Dom.1-N-terminal) (Homo sapiens, UniProt Q9UK32)
T2 construct: gene RPS6KA6; Kin.Dom.1 N-terminal
Protocol: as §1

PHKG1, sequence (Q16816 whole entry): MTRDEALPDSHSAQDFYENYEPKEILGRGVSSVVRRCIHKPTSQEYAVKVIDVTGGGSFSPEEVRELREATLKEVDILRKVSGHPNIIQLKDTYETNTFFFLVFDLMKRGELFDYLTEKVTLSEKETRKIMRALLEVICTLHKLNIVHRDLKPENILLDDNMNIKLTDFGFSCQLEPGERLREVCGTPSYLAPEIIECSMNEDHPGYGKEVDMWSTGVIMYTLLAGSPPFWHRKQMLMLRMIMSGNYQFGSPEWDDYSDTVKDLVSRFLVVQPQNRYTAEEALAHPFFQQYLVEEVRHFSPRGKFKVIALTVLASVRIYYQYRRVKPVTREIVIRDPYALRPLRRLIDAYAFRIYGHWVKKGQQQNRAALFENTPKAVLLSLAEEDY
MAP3K4, sequence (Q9Y6R4 whole entry): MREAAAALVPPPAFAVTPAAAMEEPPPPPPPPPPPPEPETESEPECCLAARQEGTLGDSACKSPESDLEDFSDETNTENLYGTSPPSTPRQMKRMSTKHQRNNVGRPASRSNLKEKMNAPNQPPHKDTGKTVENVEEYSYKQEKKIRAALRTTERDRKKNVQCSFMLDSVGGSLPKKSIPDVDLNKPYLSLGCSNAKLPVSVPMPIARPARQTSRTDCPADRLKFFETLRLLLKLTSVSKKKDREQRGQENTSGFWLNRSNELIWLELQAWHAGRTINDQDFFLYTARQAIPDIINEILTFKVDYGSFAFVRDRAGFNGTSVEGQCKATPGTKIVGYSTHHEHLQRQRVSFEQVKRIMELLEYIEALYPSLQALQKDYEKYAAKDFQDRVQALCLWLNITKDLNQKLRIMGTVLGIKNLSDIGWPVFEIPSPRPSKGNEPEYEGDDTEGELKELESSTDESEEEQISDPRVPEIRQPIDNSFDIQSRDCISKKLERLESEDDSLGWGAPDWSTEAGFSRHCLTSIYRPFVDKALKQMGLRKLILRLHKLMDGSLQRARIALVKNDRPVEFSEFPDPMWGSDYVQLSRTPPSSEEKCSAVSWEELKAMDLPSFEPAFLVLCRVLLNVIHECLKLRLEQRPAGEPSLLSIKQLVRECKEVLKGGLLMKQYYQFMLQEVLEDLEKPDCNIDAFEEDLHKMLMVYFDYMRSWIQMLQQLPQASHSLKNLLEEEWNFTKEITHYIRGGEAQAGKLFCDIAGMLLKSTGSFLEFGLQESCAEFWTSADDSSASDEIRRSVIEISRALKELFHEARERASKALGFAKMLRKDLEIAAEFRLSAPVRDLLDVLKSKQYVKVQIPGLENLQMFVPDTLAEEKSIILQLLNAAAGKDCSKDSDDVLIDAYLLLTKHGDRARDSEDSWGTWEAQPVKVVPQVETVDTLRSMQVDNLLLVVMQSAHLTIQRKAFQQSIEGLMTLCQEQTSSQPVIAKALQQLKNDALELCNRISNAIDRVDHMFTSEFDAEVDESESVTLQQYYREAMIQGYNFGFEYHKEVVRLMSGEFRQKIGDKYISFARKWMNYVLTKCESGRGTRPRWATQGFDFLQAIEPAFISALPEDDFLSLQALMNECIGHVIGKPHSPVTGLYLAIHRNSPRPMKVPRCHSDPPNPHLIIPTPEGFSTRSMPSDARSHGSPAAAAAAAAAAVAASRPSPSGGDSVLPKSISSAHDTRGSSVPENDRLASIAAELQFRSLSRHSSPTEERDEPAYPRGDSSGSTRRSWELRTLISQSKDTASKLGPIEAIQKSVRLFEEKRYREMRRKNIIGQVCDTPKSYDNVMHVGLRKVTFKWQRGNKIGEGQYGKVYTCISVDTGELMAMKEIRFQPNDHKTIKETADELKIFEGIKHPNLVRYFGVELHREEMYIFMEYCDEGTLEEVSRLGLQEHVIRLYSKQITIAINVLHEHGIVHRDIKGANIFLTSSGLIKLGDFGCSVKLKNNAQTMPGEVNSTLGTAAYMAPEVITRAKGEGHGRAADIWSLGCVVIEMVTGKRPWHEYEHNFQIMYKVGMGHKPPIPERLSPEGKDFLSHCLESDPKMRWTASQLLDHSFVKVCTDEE
PHKG2, sequence (P15735 whole entry): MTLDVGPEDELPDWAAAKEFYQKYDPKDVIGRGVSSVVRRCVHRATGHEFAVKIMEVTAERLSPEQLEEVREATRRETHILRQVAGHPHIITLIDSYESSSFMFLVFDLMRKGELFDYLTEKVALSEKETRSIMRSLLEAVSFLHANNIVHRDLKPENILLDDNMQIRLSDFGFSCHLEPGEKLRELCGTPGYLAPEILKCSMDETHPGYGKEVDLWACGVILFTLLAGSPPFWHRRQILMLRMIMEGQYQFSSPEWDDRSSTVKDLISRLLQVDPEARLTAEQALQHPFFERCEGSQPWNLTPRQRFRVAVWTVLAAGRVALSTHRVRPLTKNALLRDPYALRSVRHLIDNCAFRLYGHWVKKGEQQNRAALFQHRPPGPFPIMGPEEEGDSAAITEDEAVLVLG
MET, sequence (P08581 whole entry): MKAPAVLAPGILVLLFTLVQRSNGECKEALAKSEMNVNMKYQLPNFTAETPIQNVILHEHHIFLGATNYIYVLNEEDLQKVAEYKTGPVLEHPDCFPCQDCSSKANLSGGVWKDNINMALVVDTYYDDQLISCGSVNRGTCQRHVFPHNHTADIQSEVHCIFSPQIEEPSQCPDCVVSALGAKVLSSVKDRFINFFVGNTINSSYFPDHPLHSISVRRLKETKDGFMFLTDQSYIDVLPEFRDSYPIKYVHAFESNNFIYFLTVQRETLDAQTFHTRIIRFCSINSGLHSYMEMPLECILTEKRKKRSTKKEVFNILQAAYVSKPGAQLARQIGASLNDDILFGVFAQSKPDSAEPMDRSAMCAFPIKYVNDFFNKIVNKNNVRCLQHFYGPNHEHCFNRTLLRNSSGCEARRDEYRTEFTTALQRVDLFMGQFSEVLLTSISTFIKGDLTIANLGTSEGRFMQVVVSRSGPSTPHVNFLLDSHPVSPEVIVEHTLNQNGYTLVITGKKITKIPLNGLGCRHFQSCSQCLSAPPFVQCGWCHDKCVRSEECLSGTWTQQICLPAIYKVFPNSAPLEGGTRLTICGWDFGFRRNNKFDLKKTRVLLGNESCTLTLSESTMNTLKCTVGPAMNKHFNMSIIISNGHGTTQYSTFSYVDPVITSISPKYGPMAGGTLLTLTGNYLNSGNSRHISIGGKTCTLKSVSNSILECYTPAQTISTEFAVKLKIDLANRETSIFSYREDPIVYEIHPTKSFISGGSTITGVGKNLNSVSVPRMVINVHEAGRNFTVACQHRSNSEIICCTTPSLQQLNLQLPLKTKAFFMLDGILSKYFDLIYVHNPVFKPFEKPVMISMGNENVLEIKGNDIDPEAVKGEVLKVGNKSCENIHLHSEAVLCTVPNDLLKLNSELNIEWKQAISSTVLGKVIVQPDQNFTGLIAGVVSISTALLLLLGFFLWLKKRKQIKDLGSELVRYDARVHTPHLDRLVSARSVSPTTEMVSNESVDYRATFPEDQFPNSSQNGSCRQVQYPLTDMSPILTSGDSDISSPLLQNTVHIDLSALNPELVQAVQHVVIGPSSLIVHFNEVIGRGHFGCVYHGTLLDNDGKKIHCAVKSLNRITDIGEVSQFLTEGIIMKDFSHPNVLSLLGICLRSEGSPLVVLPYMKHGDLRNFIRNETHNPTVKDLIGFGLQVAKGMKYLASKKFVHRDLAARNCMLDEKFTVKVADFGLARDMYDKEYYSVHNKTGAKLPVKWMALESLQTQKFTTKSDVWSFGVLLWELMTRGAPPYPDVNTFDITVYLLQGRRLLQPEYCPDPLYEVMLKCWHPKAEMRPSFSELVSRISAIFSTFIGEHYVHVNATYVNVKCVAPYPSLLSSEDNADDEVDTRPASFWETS
STK38L, sequence (Q9Y2H1 whole entry): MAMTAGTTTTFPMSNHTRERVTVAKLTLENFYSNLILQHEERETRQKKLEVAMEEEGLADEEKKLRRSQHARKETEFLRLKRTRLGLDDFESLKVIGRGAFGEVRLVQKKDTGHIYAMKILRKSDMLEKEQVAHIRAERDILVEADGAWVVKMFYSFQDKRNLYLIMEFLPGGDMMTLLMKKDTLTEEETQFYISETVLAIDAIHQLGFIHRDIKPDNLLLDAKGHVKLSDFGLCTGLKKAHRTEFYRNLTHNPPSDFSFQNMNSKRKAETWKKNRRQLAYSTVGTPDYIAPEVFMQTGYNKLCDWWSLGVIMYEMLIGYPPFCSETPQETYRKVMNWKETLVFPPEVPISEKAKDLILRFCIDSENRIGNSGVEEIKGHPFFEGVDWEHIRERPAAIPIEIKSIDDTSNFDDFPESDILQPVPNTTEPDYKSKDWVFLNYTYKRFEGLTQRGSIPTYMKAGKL
AURKA, sequence (O14965 whole entry): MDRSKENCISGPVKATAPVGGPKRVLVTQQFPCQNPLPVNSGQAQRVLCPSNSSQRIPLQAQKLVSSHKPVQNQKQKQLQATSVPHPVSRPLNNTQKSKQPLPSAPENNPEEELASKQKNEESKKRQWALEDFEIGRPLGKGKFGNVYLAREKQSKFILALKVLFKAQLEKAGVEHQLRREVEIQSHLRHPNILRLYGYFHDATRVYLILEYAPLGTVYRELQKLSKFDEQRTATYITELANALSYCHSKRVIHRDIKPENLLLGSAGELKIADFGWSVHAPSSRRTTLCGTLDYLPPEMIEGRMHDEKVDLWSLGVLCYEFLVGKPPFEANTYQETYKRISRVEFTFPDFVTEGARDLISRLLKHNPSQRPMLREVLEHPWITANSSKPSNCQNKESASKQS
CDK9, sequence (P50750 whole entry): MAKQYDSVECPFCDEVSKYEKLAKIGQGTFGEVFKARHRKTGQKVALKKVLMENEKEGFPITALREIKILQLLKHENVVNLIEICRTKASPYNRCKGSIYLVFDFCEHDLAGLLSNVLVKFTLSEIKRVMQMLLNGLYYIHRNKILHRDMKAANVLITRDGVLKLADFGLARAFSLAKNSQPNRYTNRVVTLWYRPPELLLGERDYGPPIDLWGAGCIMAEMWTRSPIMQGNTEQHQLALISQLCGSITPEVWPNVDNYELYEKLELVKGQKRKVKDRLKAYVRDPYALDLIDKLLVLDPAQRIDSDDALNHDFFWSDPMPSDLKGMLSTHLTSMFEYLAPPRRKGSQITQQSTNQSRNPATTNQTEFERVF

SMILES: Oc1ccc(C2=Cc3ccc(O)cc3OC2)cc1 [compound 1, idronoxil]
- remaining binding at 10 µM (WNK1): 83%
- remaining binding at 10 µM (ADRBK2): 85%
- remaining binding at 10 µM (PDPK1): 79%
- remaining binding at 10 µM (CDK9): 91%
- remaining binding at 10 µM (PAK4): 76%
- remaining binding at 10 µM (TNK2): 91%
- remaining binding at 10 µM (STK38L): 92%
- remaining binding at 10 µM (TGFBR2): 100%
- remaining binding at 10 µM (MAP3K4): 76%
- remaining binding at 10 µM (PHKG1): 57%
- remaining binding at 10 µM (AURKA): 92%
- remaining binding at 10 µM (MET): 81%
- remaining binding at 10 µM (WNK3): 80%
- remaining binding at 10 µM (CDK15): 99%
- remaining binding at 10 µM (EPHA3): 89%
- remaining binding at 10 µM (PHKG2): 46%
- remaining binding at 10 µM (NEK4): 98%
- remaining binding at 10 µM (NEK9): 100%
- remaining binding at 10 µM (KDR): 61%
- remaining binding at 10 µM [1]: 94%
